Test results: ChEMBL document CHEMBL2073864, “Transport of glyburide by placental ABC transporters: implications in fetal drug exposure” (Placenta, 2006)

Key:
Assay type in all cases: functional, cell-based
[1] = biological target: T1, Broad substrate specificity ATP-binding cassette transporter ABCG2 (Homo sapiens, UniProt Q9UNQ0); experiment: TP_TRANSPORTER: inhibition of mitoxantrone efflux in BCRP-expressing MCF7-MX cells
T1 sequence (Q9UNQ0 whole entry): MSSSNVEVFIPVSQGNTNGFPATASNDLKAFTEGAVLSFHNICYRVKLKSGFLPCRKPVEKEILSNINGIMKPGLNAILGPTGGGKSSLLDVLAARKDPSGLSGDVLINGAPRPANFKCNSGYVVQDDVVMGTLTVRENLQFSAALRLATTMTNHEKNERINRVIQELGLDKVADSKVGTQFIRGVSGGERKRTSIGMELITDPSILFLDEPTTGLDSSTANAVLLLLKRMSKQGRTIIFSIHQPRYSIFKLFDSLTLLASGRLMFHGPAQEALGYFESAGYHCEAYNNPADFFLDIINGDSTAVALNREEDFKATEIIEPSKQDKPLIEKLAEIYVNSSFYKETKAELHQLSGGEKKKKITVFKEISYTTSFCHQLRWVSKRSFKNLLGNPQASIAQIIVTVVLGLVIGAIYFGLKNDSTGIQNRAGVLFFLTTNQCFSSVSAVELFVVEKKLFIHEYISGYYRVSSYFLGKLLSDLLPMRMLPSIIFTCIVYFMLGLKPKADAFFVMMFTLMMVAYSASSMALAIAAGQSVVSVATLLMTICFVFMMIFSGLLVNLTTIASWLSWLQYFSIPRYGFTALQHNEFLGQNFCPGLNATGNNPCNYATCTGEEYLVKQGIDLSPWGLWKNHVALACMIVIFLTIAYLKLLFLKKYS

[2] = biological target: T2, Multidrug resistance-associated protein 1 (Mus musculus, UniProt O35379); experiment: TP_TRANSPORTER: inhibition of 5-carboxyfluorescein accumulation in the presence of glyburide at a concentration of 10uM in MRP1-expressing HeLa cells; conditions: human
[3] = biological target: Multidrug resistance associated protein (Homo sapiens) (UniProt Q96QA9); experiment: TP_TRANSPORTER: inhibition of 5-carboxyfluorescein accumulation by glyburide at a concentration of 200uM in MRP3-expressing MDCK cells; design: scale not given: the % may be the effect or the level left
[4] = biological target: T3, ATP-binding cassette sub-family C member 2 (Homo sapiens, UniProt Q92887); experiment: TP_TRANSPORTER: inhibition of 5-carboxyfluorescein accumulation in MRP2-expressing MDCK cells; conditions: dog
[5] = biological target: Multidrug resistance associated protein (Homo sapiens) (UniProt Q96QA9); experiment: TP_TRANSPORTER: inhibition of 5-carboxyfluorescein accumulation by glyburide at a concentration of 10uM in MRP3-expressing MDCK cells
[6] = biological target: T3, ATP-binding cassette sub-family C member 2; experiment: TP_TRANSPORTER: inhibition of 5-carboxyfluorescein accumulation by glyburide at a concentration of 200uM in MRP2-expressing MDCK cells; design: scale not given: the % may be the effect or the level left; conditions: dog
[7] = biological target: T2, Multidrug resistance-associated protein 1; experiment: TP_TRANSPORTER: inhibition of glyburide accumulation in the presence of indomethacin at a concentration of 200uM in MRP1-expressing HeLa cells; conditions: human
[8] = biological target: T2, Multidrug resistance-associated protein 1; experiment: TP_TRANSPORTER: inhibition of 5-carboxyfluorescein accumulation in the presence of indomethacin at a concentration of 200uM in MRP1-expressing HeLa cells; design: scale not given: the % may be the effect or the level left; conditions: human
[9] = biological target: Multidrug resistance associated protein (Homo sapiens) (UniProt Q96QA9); experiment: TP_TRANSPORTER: inhibition of 5-carboxyfluorescein accumulation by indomethacin at a concentration of 200uM in MRP3-expressing MDCK cells; design: scale not given: the % may be the effect or the level left
[10] = biological target: T3, ATP-binding cassette sub-family C member 2; experiment: TP_TRANSPORTER: inhibition of glyburide accumulation in MRP2-expressing MDCK cells; conditions: dog
[11] = biological target: Multidrug resistance associated protein (Homo sapiens) (UniProt Q96QA9); experiment: TP_TRANSPORTER: inhibition of glyburide accumulation by indomethacin at a concentration of 200uM in MRP3-expressing MDCK cells

T3 sequence (Q92887 whole entry): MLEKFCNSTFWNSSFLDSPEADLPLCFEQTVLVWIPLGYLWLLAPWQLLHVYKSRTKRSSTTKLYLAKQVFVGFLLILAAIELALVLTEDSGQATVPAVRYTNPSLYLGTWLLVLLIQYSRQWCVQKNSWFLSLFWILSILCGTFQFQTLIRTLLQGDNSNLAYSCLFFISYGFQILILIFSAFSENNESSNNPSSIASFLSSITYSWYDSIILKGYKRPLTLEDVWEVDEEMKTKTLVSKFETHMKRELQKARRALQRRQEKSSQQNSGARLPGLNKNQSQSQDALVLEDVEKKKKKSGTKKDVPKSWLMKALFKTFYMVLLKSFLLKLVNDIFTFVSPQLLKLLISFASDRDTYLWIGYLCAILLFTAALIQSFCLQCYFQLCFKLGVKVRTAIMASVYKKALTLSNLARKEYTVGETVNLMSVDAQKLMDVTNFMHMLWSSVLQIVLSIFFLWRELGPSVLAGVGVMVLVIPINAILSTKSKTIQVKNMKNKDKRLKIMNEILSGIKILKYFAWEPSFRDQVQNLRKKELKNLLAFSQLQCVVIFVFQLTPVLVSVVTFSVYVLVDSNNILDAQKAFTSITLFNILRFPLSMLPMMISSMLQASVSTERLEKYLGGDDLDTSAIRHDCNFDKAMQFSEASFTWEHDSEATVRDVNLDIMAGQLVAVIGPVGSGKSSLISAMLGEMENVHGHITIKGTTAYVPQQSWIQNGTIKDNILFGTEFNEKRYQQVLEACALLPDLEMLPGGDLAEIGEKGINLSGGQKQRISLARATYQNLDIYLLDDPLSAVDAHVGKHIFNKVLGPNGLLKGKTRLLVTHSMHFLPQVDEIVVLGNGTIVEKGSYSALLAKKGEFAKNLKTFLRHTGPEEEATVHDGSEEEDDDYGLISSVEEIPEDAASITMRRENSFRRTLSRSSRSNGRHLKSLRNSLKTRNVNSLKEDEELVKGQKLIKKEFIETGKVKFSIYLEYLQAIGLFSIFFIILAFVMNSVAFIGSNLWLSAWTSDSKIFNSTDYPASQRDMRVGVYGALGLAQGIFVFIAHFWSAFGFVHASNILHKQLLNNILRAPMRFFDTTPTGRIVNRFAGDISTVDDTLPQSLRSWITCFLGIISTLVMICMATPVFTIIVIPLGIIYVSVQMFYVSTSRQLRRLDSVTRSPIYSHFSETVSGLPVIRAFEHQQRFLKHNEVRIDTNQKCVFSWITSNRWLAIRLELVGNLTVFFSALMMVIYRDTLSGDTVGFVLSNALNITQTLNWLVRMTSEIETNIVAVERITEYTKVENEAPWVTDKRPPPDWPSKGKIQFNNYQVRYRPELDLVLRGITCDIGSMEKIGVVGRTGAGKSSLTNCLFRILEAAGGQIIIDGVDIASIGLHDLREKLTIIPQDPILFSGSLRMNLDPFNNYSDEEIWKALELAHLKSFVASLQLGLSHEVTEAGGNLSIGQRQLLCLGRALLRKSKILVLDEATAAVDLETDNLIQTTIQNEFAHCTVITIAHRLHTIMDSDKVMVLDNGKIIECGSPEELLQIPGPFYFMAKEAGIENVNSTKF
T2 sequence (O35379 whole entry): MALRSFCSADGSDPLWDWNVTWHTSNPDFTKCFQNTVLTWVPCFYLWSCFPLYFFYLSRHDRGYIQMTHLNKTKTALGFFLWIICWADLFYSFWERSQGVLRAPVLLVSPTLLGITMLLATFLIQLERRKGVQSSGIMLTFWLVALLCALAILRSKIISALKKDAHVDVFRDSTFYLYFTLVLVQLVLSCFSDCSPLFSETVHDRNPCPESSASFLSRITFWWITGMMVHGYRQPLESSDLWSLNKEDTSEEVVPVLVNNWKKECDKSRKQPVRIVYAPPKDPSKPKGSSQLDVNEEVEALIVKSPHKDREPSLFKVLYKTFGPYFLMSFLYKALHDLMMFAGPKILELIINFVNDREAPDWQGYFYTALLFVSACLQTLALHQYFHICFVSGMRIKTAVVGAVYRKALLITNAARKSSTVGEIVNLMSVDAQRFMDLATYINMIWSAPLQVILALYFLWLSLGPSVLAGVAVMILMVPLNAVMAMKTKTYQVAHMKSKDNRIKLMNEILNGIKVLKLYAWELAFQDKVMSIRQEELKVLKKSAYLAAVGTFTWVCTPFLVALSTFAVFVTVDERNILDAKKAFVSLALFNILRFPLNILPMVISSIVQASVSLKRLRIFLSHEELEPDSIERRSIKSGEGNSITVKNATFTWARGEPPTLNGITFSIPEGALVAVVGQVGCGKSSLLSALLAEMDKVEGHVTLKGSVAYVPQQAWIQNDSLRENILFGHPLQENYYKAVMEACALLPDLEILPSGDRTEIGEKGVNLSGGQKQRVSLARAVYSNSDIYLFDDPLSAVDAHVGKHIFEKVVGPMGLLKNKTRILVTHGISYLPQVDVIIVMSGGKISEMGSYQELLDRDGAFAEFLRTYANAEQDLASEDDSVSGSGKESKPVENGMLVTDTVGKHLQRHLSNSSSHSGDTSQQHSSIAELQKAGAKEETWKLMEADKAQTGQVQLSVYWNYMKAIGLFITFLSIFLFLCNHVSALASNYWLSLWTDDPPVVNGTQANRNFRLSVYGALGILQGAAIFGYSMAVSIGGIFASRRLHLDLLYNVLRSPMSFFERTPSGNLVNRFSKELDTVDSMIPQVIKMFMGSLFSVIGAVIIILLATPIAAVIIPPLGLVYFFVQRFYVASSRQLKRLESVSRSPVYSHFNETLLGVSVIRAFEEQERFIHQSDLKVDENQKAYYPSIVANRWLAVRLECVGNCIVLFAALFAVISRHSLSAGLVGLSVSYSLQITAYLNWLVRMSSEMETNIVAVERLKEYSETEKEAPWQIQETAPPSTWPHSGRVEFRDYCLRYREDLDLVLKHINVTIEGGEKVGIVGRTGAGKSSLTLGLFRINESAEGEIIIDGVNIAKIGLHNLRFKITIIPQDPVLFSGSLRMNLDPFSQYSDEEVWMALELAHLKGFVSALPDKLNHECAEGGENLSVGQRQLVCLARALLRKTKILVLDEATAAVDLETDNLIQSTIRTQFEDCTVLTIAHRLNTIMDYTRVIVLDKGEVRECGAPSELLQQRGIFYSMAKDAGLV
Multidrug resistance associated protein (Homo sapiens), sequence (Q96QA9 as listed by the source): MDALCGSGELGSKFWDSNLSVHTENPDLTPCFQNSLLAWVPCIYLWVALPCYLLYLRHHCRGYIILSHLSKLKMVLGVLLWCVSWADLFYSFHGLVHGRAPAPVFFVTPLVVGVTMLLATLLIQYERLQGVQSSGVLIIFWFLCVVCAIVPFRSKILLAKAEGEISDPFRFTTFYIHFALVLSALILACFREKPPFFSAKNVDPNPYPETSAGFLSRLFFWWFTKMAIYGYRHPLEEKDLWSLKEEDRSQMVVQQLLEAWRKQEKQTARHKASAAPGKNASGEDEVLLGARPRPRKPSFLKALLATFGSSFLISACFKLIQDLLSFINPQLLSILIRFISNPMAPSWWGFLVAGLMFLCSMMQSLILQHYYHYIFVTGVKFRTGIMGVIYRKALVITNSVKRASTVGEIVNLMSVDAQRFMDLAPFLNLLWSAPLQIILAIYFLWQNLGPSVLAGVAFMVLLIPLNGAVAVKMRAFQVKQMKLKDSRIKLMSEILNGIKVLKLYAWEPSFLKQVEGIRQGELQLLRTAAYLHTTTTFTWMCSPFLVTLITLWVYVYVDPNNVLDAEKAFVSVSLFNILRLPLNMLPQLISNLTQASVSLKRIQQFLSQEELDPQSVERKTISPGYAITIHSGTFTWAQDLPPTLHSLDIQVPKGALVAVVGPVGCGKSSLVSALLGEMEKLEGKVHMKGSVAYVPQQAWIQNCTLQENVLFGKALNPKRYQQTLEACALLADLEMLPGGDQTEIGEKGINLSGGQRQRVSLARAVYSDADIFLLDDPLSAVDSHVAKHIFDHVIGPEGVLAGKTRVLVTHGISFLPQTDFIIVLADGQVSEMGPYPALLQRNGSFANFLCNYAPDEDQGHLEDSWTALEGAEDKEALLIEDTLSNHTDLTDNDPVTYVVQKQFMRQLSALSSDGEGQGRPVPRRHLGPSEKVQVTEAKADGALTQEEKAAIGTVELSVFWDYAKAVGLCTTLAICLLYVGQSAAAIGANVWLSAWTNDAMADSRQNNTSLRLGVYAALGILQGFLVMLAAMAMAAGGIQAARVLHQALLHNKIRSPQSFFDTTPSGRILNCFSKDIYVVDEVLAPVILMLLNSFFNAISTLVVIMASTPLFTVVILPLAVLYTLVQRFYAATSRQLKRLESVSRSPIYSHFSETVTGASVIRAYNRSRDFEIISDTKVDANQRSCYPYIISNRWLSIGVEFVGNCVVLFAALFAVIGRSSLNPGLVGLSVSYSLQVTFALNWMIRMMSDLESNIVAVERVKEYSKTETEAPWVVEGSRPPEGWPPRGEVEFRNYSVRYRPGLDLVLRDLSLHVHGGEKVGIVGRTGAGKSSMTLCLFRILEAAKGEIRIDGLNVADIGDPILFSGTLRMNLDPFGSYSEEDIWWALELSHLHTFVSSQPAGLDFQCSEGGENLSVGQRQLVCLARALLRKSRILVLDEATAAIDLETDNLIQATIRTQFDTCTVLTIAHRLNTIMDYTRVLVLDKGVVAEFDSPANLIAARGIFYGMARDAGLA

Compound | IC50 [1] [µM] | Activity [2] | Activity [3] [%] | Activity [4] | Activity [5] | Activity [6] [%] | Activity [7] | Activity [8] [%] | Activity [9] [%] | Activity [10] | Activity [11] [fold]
COc1ccc(Cl)cc1C(=O)NCCc1ccc(S(=O)(=O)NC(=O)NC2CCCCC2)cc1 [GLYBURIDE] | 150 | is not an inhibitor [-] | 1350 | is not an inhibitor [-] | is not a inhibitor [-] | 230 | – | – | – | – | –
COc1ccc2c(c1)c(CC(=O)O)c(C)n2C(=O)c1ccc(Cl)cc1 [INDOMETHACIN] | – | – | – | – | – | – | inhibitor [+] | 170 | 350 | is not an inhibitor [-] | 1.8
